Measurements: patent US20250250642A1, “APOE GENOTYPING IN CANCER PROGNOSTICS AND TREATMENT” (The Rockefeller University, priority 2019, published 2025)

Experiments:
solid cancers = assay: RGX-104 in patients with solid cancers, radiographic tumor response by ApoE genotype; type: in vivo, human; details: monotherapy or combination with docetaxel, nivolumab or ipilimumab
Procedure: RGX-104 was administered to patients with solid cancers as a monotherapy or in combination with either docetaxel, nivolumab, or ipilimumab. Fifty-one patients were evaluable for both radiographic assessment of tumor response and ApoE genotype. Below is a table showing the number of patients with each genotype and the number of clinical responses (Partial Responses) to the therapy.

YUMM1.7 tumors = assay: Growth of YUMM1.7 tumors in human APOE knock-in mice under LXR-agonistic treatment; type: in vivo, mouse; details: RGX-104 in chow, approximate target dose 100 mg/kg body weight, from day 3 post injection
Procedure: To assess the impact of APOE genotype on the growth of syngeneic melanoma, 1×10^5 YUMM1.7 cells were subcutaneously injected into the flank of 6-10-weeks-old, sex-matched human APOE targeted replacement mice. Cells were injected in a total volume of 100 μL, and YUMM1.7 cells were mixed 1:1 with growth factor reduced Matrigel (356231, Corning) before injection. Tumor size was measured on the indicated days using digital calipers, and tumor volume was calculated as (small diameter)^2×(large diameter)×Π/6. In experiments employing YUMMER1.7 cells, 5×10^5 cells resuspended in PBS were injected subcutaneously into the flank. For LXR-agonistic treatment, mice were administered chow supplemented with the synthetic LXR-agonist RGX-104 (Rgenix (Tavazoie, M., et al. (2018) Cell, 172 (4), 825-840)) at 628.5 mg/kg chow (Research Diets, approximate target dose of 100 mg/kg body weight) starting on day 3 post injection. For anti-PD1 treatment, mice were injected intraperitoneally with 250 μg and 125 μg of anti-PD-1 antibody (BioXCell, clone RMP1-14) on days 6 and 9 post tumor cell injection, respectively. Control mice received PBS injections on the same days. For survival analysis in the YUMMER1.7 model, mice were euthanized when the tumor volume exceeded 1000 mm^3. Therapy responses were considered complete (CR, complete response) when tumor volumes fell below 16 mm^3 (lowest limit of detection).

[1] = ApoE genotype E2/E3 (10 patients)
[2] = ApoE genotype E2/E4 (3 patients)
[3] = ApoE genotype E3/E3 (30 patients)
[4] = ApoE genotype E3/E4 (8 patients)

## C[C@H](CCOc1cccc(CC(=O)O)c1)N(Cc1cccc(C(F)(F)F)c1Cl)CC(c1ccccc1)c1ccccc1 [RGX-104, 2-[3-[(3R)-3-[[2-chloro-3-(trifluoromethyl)phenyl]methyl-(2,2-diphenylethyl)amino]butoxy]phenyl]acetic acid]
Solid cancers; [1]
  Number of Partial Responses: 0
  Percent of patients with a Partial Response: 0%
Solid cancers; [2]
  Number of Partial Responses: 1
  Percent of patients with a Partial Response: 33.3%
Solid cancers; [3]
  Number of Partial Responses: 1
  Percent of patients with a Partial Response: 3.3%
Solid cancers; [4]
  Number of Partial Responses: 1
  Percent of patients with a Partial Response: 12.5%
YUMM1.7 tumors; APOE2 mice
  efficacy of LXR agonism (tumor growth): completely abrogated
YUMM1.7 tumors; APOE4 mice
  efficacy of LXR agonism (tumor growth): robust anti-tumor effects
